Experimental data published in patent US12583839B2, “PD-L1 antagonist compound” (ADLAI NORTYE BIOPHARMA CO., LTD., priority 2019, dated 2026).

Target: T1, PD-1/PD-L1 (Homo sapiens, UniProt Q9NZQ7)
T1 construct: 60535 (PD-1/NFAT-Reporter-Jurkat); host or cells: CHO cells expressing PD-L1; Jurkat cells expressing PD-1
Test: Detection of biological activity of PD-1/PD-L1 signaling inhibition at the cellular level (NFAT luciferase reporter, PD-1/NFAT-Reporter-Jurkat cells co-cultured with TCR activator/PD-L1-CHO cells)
Type: cell-based
Details: PD-1/NFAT-Reporter-Jurkat + TCR activator/PD-L1-CHO co-culture, 6 hours; Atezolizumab as positive control
From the text: Detection of Biological Activity of PD-1/PD-L1 Signaling Inhibition at the Cellular Level
This detection method is used for evaluating the biological activity of the compounds described in the present invention at the cellular level.
This detection method uses the luciferase reporter gene method to detect the biological activity of the compound on the inhibition of PD-1/PD-L1 signal at the cellular level. PD-1/NFAT—Reporter—Jurkat cells stably express human PD-1 and express the luciferase reporter gene regulated by NFAT elements; TCR activator/PD-L1-CHO cells stably express human PD-L1 and TCR activator elements. When the two cell lines were co-cultured, the binding of PD-1/PD-L1 inhibited the TCR signaling pathway, thereby inhibiting the expression of the downstream NFAT-controlled luciferase reporter gene. When PD-1/PD-L1 antibody or inhibitor is added, this inhibitory effect is reversed and luciferase is expressed, so that the effect of PD-1/PD-L1 inhibitor on luciferase activity can be detected.
PD-1/NFAT—Reporter—Jurkat cell (Cat: 60535) and TCR activator/PD-L1-CHO cell (Cat: 60536) were purchased from BPS Bioscience. Anti-human PD-L1 antibody (Atezolizumab, Cat: A2004) was purchased from Selleck; luciferase reporter gene expression detection kit (ONE-Glo™ Luciferase Assay System, Cat: E6120) was purchased from Promega; multifunction plate reader (SpectraMax i3x) was purchased from Molecular Devices.
The PD-1/NFAT—Reporter—Jurkat cells and TCR activator/PD-L1-CHO cells were cultured according to the routine cell culture protocol.
TCR activator/PD-L1-CHO cells were harvested and seeded into a 96-well culture plate at 35,000 cells/well in a medium volume of 100 μl and incubated overnight at 37° C. The next day, the medium was discarded, compound was added and incubated for 30 minutes, while a solvent control (dimethyl sulfoxide, DMSO, final concentration of 0.1%) and PD-L1 antibody (Atezolizumab, final concentration of about 10 nM) as positive controls were set. PD-1/NFAT-reporter-Jurkat cells were then added. After culturing for 6 hours, the luciferase activity was detected according to the instructions of the luciferase detection reagent.
Using PD-L1 antibody as a positive control, calculate the inhibition rate of PD-1/PD-L1 binding of the test compound (%)=(chemiluminescence value of compound treated wells/average value of chemiluminescence value of solvent control wells−1)/(average value of chemiluminescence value of PD-L1 antibody well/average value of chemiluminescence value of solvent control well−1)×100%.
According to the above detection method, the compounds of the present invention were evaluated for their biological activity at the cellular level, and the activity results are shown in the following table.

T1 sequence (Q9NZQ7 19-290): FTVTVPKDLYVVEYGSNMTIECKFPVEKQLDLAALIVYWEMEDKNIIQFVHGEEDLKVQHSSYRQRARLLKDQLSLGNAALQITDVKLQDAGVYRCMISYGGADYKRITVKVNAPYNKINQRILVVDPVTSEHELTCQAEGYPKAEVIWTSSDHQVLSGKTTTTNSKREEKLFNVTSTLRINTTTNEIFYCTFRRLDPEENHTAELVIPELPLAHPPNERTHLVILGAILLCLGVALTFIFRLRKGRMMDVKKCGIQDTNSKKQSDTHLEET

SMILES	EC50 [nM]
COc1cc(-c2cccc(-c3cccc4c3cnn4Cc3cc(OC)c(CNC[C@H]4CC[C@H](C(=O)O)CC4)cc3Cl)c2Cl)ccc1CNC[C@@H]1CCC(=O)N1 [Compound 54]	38
COc1cc(-c2cccc(-c3cccc4c3cnn4Cc3cc(OC)c(CN(C)C[C@H]4CC[C@H](C(=O)O)CC4)cc3Cl)c2Cl)ccc1CNC[C@@H]1CCC(=O)N1 [Compound 55]	66
COc1cc(-c2cccc(-c3cccc4c3cnn4Cc3cc(OC)c(CN[C@H]4CC[C@H](C(=O)O)CC4)cc3Cl)c2Cl)ccc1CNC[C@@H]1CCC(=O)N1 [Compound 56]	50
COc1cc(-c2cccc(-c3cccc4c3cnn4Cc3cc(OC)c(CN(C)[C@H]4CC[C@H](C(=O)O)CC4)cc3Cl)c2Cl)ccc1CNC[C@@H]1CCC(=O)N1 [Compound 57]	38
COc1cc(-c2cccc(-c3cccc4c3cnn4Cc3cc(OC)c(CNC[C@@H]4CCC(=O)N4)cc3Cl)c2Cl)ccc1CNC[C@@H]1CCC(=O)N1 [Compound 58]	69
COc1cc(-c2cccc(-c3cccc4c3cnn4Cc3cc(OC)c(CN[C@H]4CC[C@@H](C(=O)O)CC4)cc3Cl)c2Cl)ccc1CNC[C@@H]1CCC(=O)N1 [Compound 59]	37
COc1cc(-c2cccc(-c3cccc4c3cnn4Cc3cc(OC)c(CN(C)[C@H]4CC[C@@H](C(=O)O)CC4)cc3Cl)c2Cl)ccc1CNC[C@@H]1CCC(=O)N1 [Compound 60]	33
COc1cc(Cn2ncc3c(-c4cccc(-c5ccc(CN6CC[C@@H](O)C6)cc5)c4Cl)cccc32)c(Cl)cc1CNC[C@H]1CC[C@H](C(=O)O)CC1 [Compound 63]	950
COc1cc(Cn2ncc3c(-c4cccc(-c5ccc(CN6CC[C@@H](C(=O)O)C6)cc5)c4Cl)cccc32)c(Cl)cc1CN1CC[C@@H](O)C1 [Compound 69]	805
COc1cc(Cn2ncc3c(-c4cccc(-c5ccc(CN6CC[C@@H](C(=O)O)C6)c(OC)c5)c4Cl)cccc32)c(Cl)cc1CNC[C@@H]1CCC(=O)N1 [Compound 70]	222
COc1cc(Cn2ncc3c(-c4cccc(-c5ccc(CN6CC[C@@H](C(=O)O)C6)c(OC)c5)c4Cl)cccc32)c(Cl)cc1CN1CC[C@@H](O)C1 [Compound 71]	693
COc1cc(Cn2ncc3c(-c4cccc(-c5ccc(CNC[C@@H]6CCC(=O)N6)cc5)c4Cl)cccc32)c(C#N)cc1CN[C@@H](CO)C(=O)O [Compound 75]	142
COc1cc(Cn2ncc3c(-c4cccc(-c5ccc(CNC[C@@H]6CCC(=O)N6)cc5)c4Cl)cccc32)c([N+](=O)[O-])cc1CN[C@@H](CO)C(=O)O [Compound 76]	49
COc1nc(Cn2ncc3c(-c4cccc(-c5ccc(CNC[C@@H]6CCC(=O)N6)cc5)c4Cl)cccc32)c(Cl)cc1CN[C@@H](CO)C(=O)O [Compound 80]	302
COc1cc(Cn2nc(F)c3c(-c4cccc(-c5ccc(CNC[C@@H]6CCC(=O)N6)cc5)c4Cl)cccc32)c(Cl)cc1CN[C@@H](CO)C(=O)O [Compound 83]	92
COc1cc(Cn2ncc3c(-c4cccc(-c5ccc(CNC[C@@H]6CCC(=O)N6)cc5)c4Cl)cccc32)c(Cl)cc1CNCc1nnn[nH]1 [Compound 85]	469
O=C(O)COc1cc(Cn2ncc3c(-c4cccc(-c5ccc(CNC[C@@H]6CCC(=O)N6)cc5)c4Cl)cccc32)c(Cl)cc1CNCCO [Compound 86]	395
COc1cc(-c2cccc(-c3cccc4c3cnn4Cc3cc(OC)c(CN4CC[C@@H](C(=O)O)C4)cc3Cl)c2Cl)ccc1CN1CC[C@@H](O)C1 [Compound 87]	692
COc1cc(-c2cccc(-c3cccc4c3cnn4Cc3cc(OC)c(CN4CC[C@@H](C(=O)O)C4)cc3Cl)c2Cl)ccc1CNCCO [Compound 88]	80
COc1cc(Cn2ncc3c(-c4cccc(-c5ccc(CNC[C@@H]6CCC(=O)N6)cc5)c4Cl)cccc32)c(N)cc1CN[C@@H](CO)C(=O)O [Compound 89]	1110
COc1cc(-c2cccc(-c3cccc4c3cnn4Cc3cc(OC)c(CN4CC[C@@H](C(=O)O)C4)cc3Cl)c2C)ccc1CNC[C@@H]1CCC(=O)N1 [Compound 90]	150
COc1cc(Cn2ncc3c(-c4cccc(-c5ccc(CNC[C@@H]6CCC(=O)N6)c(OC)n5)c4Cl)cccc32)c(Cl)cc1CN(C)CC1CCC(C(=O)O)CC1 (stereo partly shown) [Compound 91]	92
COc1cc(-c2cccc(-c3cccc4c3cnn4Cc3cc(OC)c(CN(C)C4CCC(C(=O)O)CC4)cc3[N+](=O)[O-])c2Cl)ccc1CNC[C@@H]1CCC(=O)N1 (stereo partly shown) [Compound 92]	15
COc1cc(-c2cccc(-c3cccc4c3cnn4Cc3cc(OC)c(CN(C)[C@H]4C[C@H](C(=O)O)C4)cc3Cl)c2Cl)ccc1CNC[C@@H]1CCC(=O)N1 [Compound 93]	21
COc1cc(-c2cccc(-c3cccc4c3cnn4Cc3cc(OC)c(CN4CCC(CC(=O)O)CC4)cc3Cl)c2Cl)ccc1CNC[C@@H]1CCC(=O)N1 [Compound 94]	142
COc1cc(-c2cccc(-c3cccc4c3cnn4Cc3cc(OC)c(CN(C)[C@H]4CC[C@H](CC(=O)O)CC4)cc3Cl)c2Cl)ccc1CNC[C@@H]1CCC(=O)N1 [Compound 95]	15
COc1cc(-c2cccc(-c3cccc4c3cnn4Cc3cc(OC)c(CN(C)CC4CCC(C(=O)O)CC4)cc3[N+](=O)[O-])c2Cl)ccc1CNC[C@@H]1CCC(=O)N1 (stereo partly shown) [Compound 96]	45
CCOc1cc(-c2cccc(-c3cccc4c3cnn4Cc3cc(OC)c(CN(C)CC4CCC(C(=O)O)CC4)cc3Cl)c2Cl)ccc1CNC[C@@H]1CCC(=O)N1 (stereo partly shown) [Compound 97]	273
COc1cc(Cn2ncc3c(-c4cccc(-c5ccc(CNC[C@@H]6CCC(=O)N6)c(OC(C)C)c5)c4Cl)cccc32)c(Cl)cc1CN(C)CC1CCC(C(=O)O)CC1 (stereo partly shown) [Compound 98]	520

Second part, the compound after the results:

EC50 [nM]	SMILES
62	COc1cc(-c2cccc(-c3cccc4c3cnn4Cc3cc(OC)c(CN4CC[C@H](CC(=O)O)C4)cc3Cl)c2Cl)ccc1CNC[C@@H]1CCC(=O)N1 [Compound 99]
745	COc1cc(Cn2ncc3c(-c4cccc(-c5ccc(CN(C)C[C@@H]6CCC(=O)N6)c(OC)c5)c4Cl)cccc32)c(Cl)cc1CN(C)CC1CCC(C(=O)O)CC1 (stereo partly shown) [Compound 100]
87	COc1cc(Cn2ncc3c(-c4cccc(-c5cc(F)c(CNC[C@@H]6CCC(=O)N6)c(OC)c5)c4Cl)cccc32)c(Cl)cc1CN(C)CC1CCC(C(=O)O)CC1 (stereo partly shown) [Compound 101]
735	COc1cc(Cn2ncc3c(-c4cccc(-c5cc(OC)c(CNC[C@@H]6CCC(=O)N6)c(OC)c5)c4Cl)cccc32)c(Cl)cc1CN(C)CC1CCC(C(=O)O)CC1 (stereo partly shown) [Compound 102]
208	COc1cc(-c2cccc(-c3cccc4c3cnn4Cc3cc(OC)c(CN(C)C4CCC(C(=O)O)CC4)cc3S(C)(=O)=O)c2Cl)ccc1CNC[C@@H]1CCC(=O)N1 (stereo partly shown) [Compound 103]
46	COc1cc(-c2cccc(-c3cccc4c3cnn4Cc3cc(OC)c(CN(C)[C@H]4C[C@@H](C(=O)O)C4)cc3Cl)c2Cl)ccc1CNC[C@@H]1CCC(=O)N1 [Compound 104]
20	COc1cc(-c2cccc(-c3cccc4c3cnn4Cc3cc(OC)c(CN(C)C45CCC(C(=O)O)(CC4)CC5)cc3Cl)c2Cl)ccc1CNC[C@@H]1CCC(=O)N1 [Compound 105]
43	COc1cc(-c2cccc(-c3cccc4c3cnn4Cc3cc(OC)c(CN(C)C4CC5(CC(C(=O)O)C5)C4)cc3Cl)c2Cl)ccc1CNC[C@@H]1CCC(=O)N1 (stereo partly shown) [Compound 106]
20	COc1cc(-c2cccc(-c3cccc4c3cnn4Cc3cc(OC)c(CN(C)C4CCC(C(=O)O)CC4)cc3C#N)c2Cl)ccc1CNC[C@@H]1CCC(=O)N1 (stereo partly shown) [Compound 107]
63	COc1cc(-c2cccc(-c3cccc4c3cnn4Cc3cc(OC)c(CN(C)C4CCC(CC(=O)O)CC4)cc3C#N)c2Cl)ccc1CNC[C@@H]1CCC(=O)N1 (stereo partly shown) [Compound 108]
44	COc1cc(-c2cccc(-c3cccc4c3cnn4Cc3cc(OC)c(CN(C)[C@H]4CC[C@@H](CC(=O)O)CC4)cc3Cl)c2Cl)ccc1CNC[C@@H]1CCC(=O)N1 [Compound 109]
495	COc1cc(-c2cccc(-c3cccc4c3cnn4Cc3cc(OC(C)C)c(CN(C)CC4CCC(C(=O)O)CC4)cc3Cl)c2Cl)ccc1CNC[C@@H]1CCC(=O)N1 (stereo partly shown) [Compound 110]
1040	COc1cc(Cn2ncc3c(-c4cccc(-c5ccc(CNC[C@@H]6CCC(=O)N6)cc5)c4Cl)cccc32)c(F)cc1CN(C)CC1CCC(C(=O)O)CC1 (stereo partly shown) [Compound 111]
185	COc1cc(-c2cccc(-c3cccc4c3cnn4Cc3cc(OC)c(CN(C)CC4CCC(C(=O)O)CC4)cc3C)c2Cl)ccc1CNC[C@@H]1CCC(=O)N1 (stereo partly shown) [Compound 112]
